Nine molecules from patent publication US20140378408A1, “NUCLEOSIDE 5'-PHOSPHOROTHIOATE ANALOGUES AND USES THEREOF” (BAR-ILAN UNIVERSITY, an Israeli University, priority 2012, published 2014) can be followed below.

Series [1] has as its target T1, human NTPDase3 (Homo sapiens, UniProt O75355).
T1 sequence (O75355 1-529): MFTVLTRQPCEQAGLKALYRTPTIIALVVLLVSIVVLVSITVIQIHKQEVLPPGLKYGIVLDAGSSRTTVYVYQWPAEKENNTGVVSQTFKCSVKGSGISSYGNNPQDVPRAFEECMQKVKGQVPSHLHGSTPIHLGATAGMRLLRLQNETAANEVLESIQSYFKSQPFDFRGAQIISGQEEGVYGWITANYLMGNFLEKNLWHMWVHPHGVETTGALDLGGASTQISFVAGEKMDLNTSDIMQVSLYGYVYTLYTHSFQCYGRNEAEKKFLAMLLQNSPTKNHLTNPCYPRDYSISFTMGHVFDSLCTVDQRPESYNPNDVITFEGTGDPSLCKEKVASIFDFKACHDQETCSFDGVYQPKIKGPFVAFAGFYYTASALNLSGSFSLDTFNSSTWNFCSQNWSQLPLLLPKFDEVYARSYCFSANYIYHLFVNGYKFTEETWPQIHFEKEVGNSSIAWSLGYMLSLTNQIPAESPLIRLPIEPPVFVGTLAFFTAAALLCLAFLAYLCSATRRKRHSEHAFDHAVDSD
The series can be described thus: Inhibition of NTPDase3 activity. Conditions: for effect on human NTPDase3 activity: Table 5, ATP and analogue 100 μM, 100% activity = ATP alone; for inhibition of the hydrolysis of ATP by NTPDase3: analogue and ATP 100 μM.

The target of series [2] is T2, human NPP1 (Homo sapiens, UniProt P22413).
T2 construct: made in house; host or cells: COS-7 cells (transfected; protein extract / cell lysate)
T2 sequence (P22413 1-925): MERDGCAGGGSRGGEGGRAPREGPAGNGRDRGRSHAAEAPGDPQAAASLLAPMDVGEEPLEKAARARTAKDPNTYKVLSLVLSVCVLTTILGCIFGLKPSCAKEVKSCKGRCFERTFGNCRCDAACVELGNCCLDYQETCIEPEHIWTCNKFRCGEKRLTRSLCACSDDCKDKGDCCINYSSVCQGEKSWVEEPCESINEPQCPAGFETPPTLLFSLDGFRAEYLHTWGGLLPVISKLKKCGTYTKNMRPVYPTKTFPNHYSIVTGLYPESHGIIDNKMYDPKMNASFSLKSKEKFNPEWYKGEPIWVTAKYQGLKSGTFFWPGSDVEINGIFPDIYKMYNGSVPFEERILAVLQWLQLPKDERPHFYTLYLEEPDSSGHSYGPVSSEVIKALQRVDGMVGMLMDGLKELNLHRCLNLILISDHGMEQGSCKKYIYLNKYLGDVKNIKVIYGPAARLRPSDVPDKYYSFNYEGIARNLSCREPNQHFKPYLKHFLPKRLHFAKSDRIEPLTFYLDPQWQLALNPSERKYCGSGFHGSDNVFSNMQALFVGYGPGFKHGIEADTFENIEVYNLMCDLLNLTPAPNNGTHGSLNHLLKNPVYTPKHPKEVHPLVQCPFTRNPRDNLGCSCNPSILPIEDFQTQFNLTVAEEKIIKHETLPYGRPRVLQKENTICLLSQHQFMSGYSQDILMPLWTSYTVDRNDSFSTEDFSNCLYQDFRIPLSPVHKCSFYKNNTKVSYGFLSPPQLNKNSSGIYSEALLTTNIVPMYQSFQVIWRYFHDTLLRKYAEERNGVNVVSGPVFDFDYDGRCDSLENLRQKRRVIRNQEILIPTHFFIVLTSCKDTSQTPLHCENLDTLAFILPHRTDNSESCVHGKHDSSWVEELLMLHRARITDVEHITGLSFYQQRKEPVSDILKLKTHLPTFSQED
The series is described as follows: Inhibition of NPP1 activity. In kind it is biochemical. Conditions: for type of inhibition: Dixon and Cornish-Bowden methods; for inhibition of pnp-TMP hydrolysis by NPP1: analogue and pnp-TMP 100 μM.

Series [3] deals with T2, human NPP1. The series is described as follows: Inhibition of NPP1 activity. The series is classed as biochemical. To be noted: pNP-TMP 5·10^−5 M.
In series [4] the target is T3, human NTPDase1 (Homo sapiens, UniProt P49961).
T3 sequence (P49961 1-510): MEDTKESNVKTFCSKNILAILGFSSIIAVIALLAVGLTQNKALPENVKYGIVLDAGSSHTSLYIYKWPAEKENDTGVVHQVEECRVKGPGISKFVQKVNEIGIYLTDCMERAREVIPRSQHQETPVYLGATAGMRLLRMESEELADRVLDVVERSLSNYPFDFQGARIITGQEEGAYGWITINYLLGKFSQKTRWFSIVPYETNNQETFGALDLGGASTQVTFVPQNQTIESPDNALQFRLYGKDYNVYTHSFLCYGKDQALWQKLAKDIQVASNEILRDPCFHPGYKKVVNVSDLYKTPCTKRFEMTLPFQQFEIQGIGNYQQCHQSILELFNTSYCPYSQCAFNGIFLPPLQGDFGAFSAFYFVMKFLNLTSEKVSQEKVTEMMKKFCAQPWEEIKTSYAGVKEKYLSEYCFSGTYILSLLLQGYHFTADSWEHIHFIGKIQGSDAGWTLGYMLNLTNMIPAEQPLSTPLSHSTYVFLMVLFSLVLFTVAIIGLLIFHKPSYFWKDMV
The series is described as follows: Inhibition of NTPDase1 activity. Conditions: for effect on human NTPDase1 activity: Table 5, ATP and analogue 100 μM, 100% activity = ATP alone, read as inhibition; for inhibition of the hydrolysis of ATP by NTPDase1: analogue and ATP 100 μM.

The target of series [5] is T2, human NPP1. The series can be described thus: Hydrolysis by human NPP1. The series is classed as in vitro ADME. Conditions: for Relative hydrolysis by NPP1: over 2 h; for Hydrolysis by NPP1: 100 μM, 1 h, compared to ATP.

Read-outs that look alike come from different tables or passages of the source. A value given as a limit tells only on which side of the number the result lay.

For the molecule `Nc1ncnc2c1ncn2[C@@H]1O[C@H](COP(=O)(O)CP(=O)(O)OP(O)(O)=S)[C@@H](O)[C@H]1O` [APCPP-γ-S, adenosine 5′-[Pγ-thio]-α,β-methylenetriphosphate], the “effect on human NTPDase3 activity” value in series [1] was determined as 26.8 ± 1.1%. Moreover, the Ki was less than 9 µM in series [2] and 0.02 µM in series [2] (NPP1, text, read-out: Ki). The type of inhibition result in series [2] is listed as “mixed type inhibition, predominantly competitive”. This molecule also had a concentration for half-maximal inhibition (IC50) in series [3] of 0.39 ± 0.001 µM. Besides, the “effect on human NTPDase1 activity” value in series [4] is 18.7 ± 0.8%.
On to `Nc1ncnc2c1ncn2[C@@H]1O[C@H](COP(O)(=S)OP(=O)(O)C(Cl)(Cl)P(=O)(O)O)[C@@H](O)[C@H]1O` (single isomer, unassigned; isomer a) [APPCCl2P-α-S (isomer A), adenosine 5′-[Pα-thio]-β,γ-(dichloromethylene)triphosphate], for which the “effect on human NTPDase3 activity” value in series [1] (listed as APPCCl2P-α-S A) turned out to be 21.8 ± 1.0%. For the same molecule, in series [1], the “inhibition of the hydrolysis of ATP by NTPDase3” value (“inhibition … by NTPDase3” for short) is given as “did not interfere”. Besides, in series [2] (NPP1, text, read-out: IC50), the IC50 came to 0.6 µM. Moreover, the inhibitory constant (Ki) in series [2] (NPP1, text, read-out: Ki) came out at 0.685 µM. Moreover, in series [4] (listed as APPCCl2P-α-S A), the “effect on human NTPDase1 activity” value was 0.5 ± 0.01%. For the same molecule, the “inhibition of the hydrolysis of ATP by NTPDase1” value (shortened to “inhibition … by NTPDase1”) in series [4] is listed as “did not interfere”.
`Nc1ncnc2c1ncn2[C@@H]1O[C@H](COP(O)(=S)OP(=O)(O)C(Cl)(Cl)P(=O)(O)O)[C@@H](O)[C@H]1O` (single isomer, unassigned; isomer b) [APPCCl2P-α-S (isomer B), adenosine 5′-[Pα-thio]-β,γ-(dichloromethylene)triphosphate]: the “effect on human NTPDase3 activity” value in series [1] (listed as APPCCl2P-α-S B) was 24.0 ± 1.2%. Further, the “inhibition … by NTPDase3” value in series [1] was “did not interfere”. In addition, the Ki in series [2] (pNP-TMP as substrate, Dixon plot, read-out: Ki) is 15.2 ± 0.1 µM. In addition, the IC50 in series [3] worked out at 31.2 ± 0.1 µM. Moreover, the “effect on human NTPDase1 activity” value in series [4] (listed as APPCCl2P-α-S B) was 21.6 ± 1.0%. Also, the “inhibition … by NTPDase1” value in series [4] is on record as “did not interfere”.
For the molecule `Nc1ncnc2c1ncn2[C@@H]1O[C@H](COP(O)(=S)OP(=O)(O)C(Cl)(Cl)P(=O)(O)O)[C@@H](O)[C@H]1O` (single isomer, unassigned) [APPCCl2P-α-S, adenosine 5′-[Pα-thio]-β,γ-(dichloromethylene)triphosphate], in series [2], the IC50 came to 0.39 µM; the Ki worked out at 0.02 µM; the type of inhibition entry is on record as “mixed type inhibition, predominantly competitive”.
On to “di-adenosine-5′,5″-tetrathiobisphosphonate”, for which the “inhibition … by NTPDase3” value in series [1] is reported as 5-20%. Besides, the “inhibition of pnp-TMP hydrolysis by NPP1” value in series [2] is reported as roughly 60%. Also, the “Relative hydrolysis by NPP1” value in series [5] is “not metabolized at all”. The “inhibition … by NTPDase1” value in series [4] was roughly 60%.
For the molecule `Nc1ncnc2c1ncn2[C@@H]1O[C@H](COP(O)(=S)OP(=O)(O)CP(=O)(O)O)[C@@H](O)[C@H]1O` (single isomer, unassigned; isomer a) [APPCP-α-S (isomer A), adenosine 5′-[Pα-thio]-β,γ-methylenetriphosphate], the “effect on human NTPDase3 activity” value in series [1] (listed as APPCP-α-S A) is listed as 40.2 ± 2.0%. The “inhibition … by NTPDase3” value in series [1] was “did not interfere”. Moreover, the Ki was 4.5 ± 0.003 µM in series [2] (dissociation constant for EIS complex, Cornish-Bowden plot, listed as APPCP-α-S A, read-out: Ki′) and 4.5 ± 0.03 µM in series [2] (pNP-TMP as substrate, Dixon plot, listed as APPCP-α-S A, read-out: Ki). For the same molecule, in series [5], the “Hydrolysis by NPP1” value was “fully stable”. In addition, in series [3] (listed as APPCP-α-S A), the IC50 came out at 16.3 ± 0.04 µM. Also, the “effect on human NTPDase1 activity” value in series [4] (listed as APPCP-α-S A) is reported as 58.4 ± 2.1%. Besides, the “inhibition … by NTPDase1” value in series [4] was “did not interfere”.
adenosine-5′-tetrathiobisphosphonate: in series [2], the “inhibition of pnp-TMP hydrolysis by NPP1” value turned out to be 4%. Further, the “Relative hydrolysis by NPP1” value in series [5] is “not metabolized at all”. The “inhibition … by NTPDase1” value in series [4] stood at 54%.
Take `Nc1ncnc2c1ncn2[C@@H]1O[C@H](COP(=O)(O)OP(O)(O)=S)[C@@H](O)[C@H]1O` [ADP-β-S, adenosine 5′-[β-thio]diphosphate, reference compound]: in series [1], the “inhibition … by NTPDase3” value is given as “less than 50%”. Also, in series [2], the “inhibition of pnp-TMP hydrolysis by NPP1” value was 95%. In series [5], the “Relative hydrolysis by NPP1” value is “not metabolized at all”. Besides, in series [4], the “inhibition … by NTPDase1” value is reported as “less than 50%”.
On to `Nc1ncnc2c1ncn2[C@@H]1O[C@H](COP(O)(=S)OP(=O)(O)CP(=O)(O)O)[C@@H](O)[C@H]1O` (single isomer, unassigned; isomer b) [APPCP-α-S (isomer B), adenosine 5′-[Pα-thio]-β,γ-methylenetriphosphate], for which the “effect on human NTPDase3 activity” value in series [1] (listed as APPCP-α-S B) is given as 18.7 ± 0.8%. In series [1], the “inhibition … by NTPDase3” value is “did not interfere”. For the same molecule, the Ki in series [2] (pNP-TMP as substrate, Dixon plot, listed as APPCP-α-S B, read-out: Ki) was 1.3 ± 0.01 µM. Further, in series [5], the “Hydrolysis by NPP1” value was roughly 4%. The same molecule returned an IC50 in series [3] (listed as APPCP-α-S B) of 18.7 ± 0.03 µM. For the same molecule, in series [4] (listed as APPCP-α-S B), the “effect on human NTPDase1 activity” value came to 0.5 ± 0.02%. Further, the “inhibition … by NTPDase1” value in series [4] is reported as “did not interfere”.

What is called Ki is the equilibrium dissociation constant of an inhibitor or competing ligand from its target. What is called IC50 is the concentration that gives 50% inhibition.
